From ChEMBL document CHEMBL1148292 (J Med Chem, 2004)

Tests used:
Adenosine receptor A2b [1] = target: T1, Adenosine receptor A2b (Homo sapiens, UniProt P29275); assay: Binding affinity of compound for displacement of [3H]DPCPX binding in HEK293 membranes expressing human A2B adenosine receptors
T1 sequence (P29275 whole entry): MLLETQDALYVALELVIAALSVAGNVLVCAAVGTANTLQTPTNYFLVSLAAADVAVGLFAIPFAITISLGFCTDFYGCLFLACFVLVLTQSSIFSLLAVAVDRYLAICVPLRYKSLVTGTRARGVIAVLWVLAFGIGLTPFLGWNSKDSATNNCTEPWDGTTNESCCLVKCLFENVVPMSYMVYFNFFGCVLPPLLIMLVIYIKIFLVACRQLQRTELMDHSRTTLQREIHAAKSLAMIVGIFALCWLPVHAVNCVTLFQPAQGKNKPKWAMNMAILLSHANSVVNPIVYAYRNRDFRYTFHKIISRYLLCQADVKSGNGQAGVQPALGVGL

Adenosine receptor A1 = target: T2, Adenosine receptor A1 (Homo sapiens, UniProt P30542); assay: Displacement of specific [3H]DPCPX binding at human adenosine A1 receptor expressed in CHO cells; format: cell-based
T2 sequence (P30542 whole entry): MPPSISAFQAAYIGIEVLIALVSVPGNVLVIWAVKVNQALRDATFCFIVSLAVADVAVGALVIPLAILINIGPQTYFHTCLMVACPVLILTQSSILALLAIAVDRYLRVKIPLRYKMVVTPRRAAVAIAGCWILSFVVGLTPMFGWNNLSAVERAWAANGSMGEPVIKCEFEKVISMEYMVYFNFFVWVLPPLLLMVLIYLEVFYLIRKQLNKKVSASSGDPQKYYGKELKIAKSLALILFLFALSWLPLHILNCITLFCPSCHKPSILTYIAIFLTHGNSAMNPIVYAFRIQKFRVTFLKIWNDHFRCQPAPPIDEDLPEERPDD

Adenosine receptor A2a = Adenosine receptor A2a (Homo sapiens, UniProt P29274); assay: Binding affinity of compound for displacement of specific [3H]ZM-241385 binding at human adenosine A2A receptor expressed in CHO cells; format: cell-based
Chain of Adenosine receptor A2a (P29274 whole entry): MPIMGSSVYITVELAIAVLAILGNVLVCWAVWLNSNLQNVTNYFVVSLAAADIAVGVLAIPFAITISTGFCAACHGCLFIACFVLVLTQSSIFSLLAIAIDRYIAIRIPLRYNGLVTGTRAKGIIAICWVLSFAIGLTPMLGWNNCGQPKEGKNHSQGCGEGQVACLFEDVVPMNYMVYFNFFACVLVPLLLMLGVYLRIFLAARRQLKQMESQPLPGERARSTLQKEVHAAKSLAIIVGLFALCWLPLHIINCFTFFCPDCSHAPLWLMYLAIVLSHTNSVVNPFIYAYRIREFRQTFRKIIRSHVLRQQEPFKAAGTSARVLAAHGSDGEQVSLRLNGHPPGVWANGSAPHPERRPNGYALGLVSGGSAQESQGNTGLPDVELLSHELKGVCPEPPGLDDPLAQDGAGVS

Adenosine receptor A2b [2] = target: T1, Adenosine receptor A2b; assay: Binding affinity of compound for displacement of specific [3H]- DPCPX binding at human A2B receptors expressed in HEK293 cells; format: cell-based
Adenosine receptor A3 = target: T3, Adenosine receptor A3 (Homo sapiens, UniProt P0DMS8); assay: Binding affinity of compound for displacement of specific [3H]MRE3008-F20 binding at human A3 receptors expressed in CHO cells; format: cell-based
T3 sequence (P0DMS8 whole entry): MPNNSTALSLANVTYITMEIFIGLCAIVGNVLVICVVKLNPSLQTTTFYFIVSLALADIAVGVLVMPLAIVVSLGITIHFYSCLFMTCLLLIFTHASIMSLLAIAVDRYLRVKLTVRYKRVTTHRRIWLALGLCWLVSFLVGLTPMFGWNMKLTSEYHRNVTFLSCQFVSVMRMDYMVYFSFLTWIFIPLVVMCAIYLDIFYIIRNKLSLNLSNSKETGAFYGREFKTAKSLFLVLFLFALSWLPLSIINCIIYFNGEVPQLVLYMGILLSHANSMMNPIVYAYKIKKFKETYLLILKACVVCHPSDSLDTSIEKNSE

Adenosine receptor A2b [3] = target: T1, Adenosine receptor A2b; assay: Inhibitory activity against cAMP production in CHO cells transfected with human A2B adenosine receptor; format: functional, cell-based

SMILES	Ki (Adenosine receptor A1)	Ki (Adenosine receptor A2a)	Ki (Adenosine receptor A3)	further results
CCCn1c(=O)c2[nH]c(-c3cc(NC(=O)Cc4ccccc4)nn3C)nc2n(CCC)c1=O	–	–	–	Ki (Adenosine receptor A2b [1]): 35 nM
CCCn1c(=O)c2[nH]c(-c3cc(NC(=O)Cc4ccc(O)cc4)nn3C)nc2n(CCC)c1=O	> 1000 nM	–	–	–
CCCn1c(=O)c2[nH]c(-c3cc(OCC(=O)Nc4ccc(F)cc4)no3)nc2n(CCC)c1=O	> 1000 nM	–	–	–
CCCn1c(=O)c2[nH]c(-c3cc(NC(=O)Cc4ccc5c(c4)OCO5)nn3C)nc2n(CCC)c1=O	–	> 1000 nM	–	Ki (Adenosine receptor A2b [1]): 18 nM
CCCn1c(=O)c2[nH]c(-c3cc(NC(=O)Cc4ccc(Cl)cc4)nn3C)nc2n(CCC)c1=O	–	–	–	Ki (Adenosine receptor A2b [1]): 28 nM
CCCn1c(=O)c2[nH]c(-c3cc(NC(=O)Cc4cc(OC)c(OC)c(OC)c4)nn3C)nc2n(CCC)c1=O	> 1000 nM	> 1000 nM	> 1000 nM	Ki (Adenosine receptor A2b [2]): > 1000 nM
CCCn1c(=O)c2[nH]c(-c3cc(NC(=O)Cc4cccc(OC)c4)nn3C)nc2n(CCC)c1=O	> 1000 nM	–	–	–
CCCn1c(=O)c2[nH]c(-c3cc(NC(=O)Cc4ccc(F)c(F)c4)nn3C)nc2n(CCC)c1=O	–	–	–	Ki (Adenosine receptor A2b [2]): 78 nM
CCCn1c(=O)c2[nH]c(-c3cc(N)n(C)n3)nc2n(CCC)c1=O	–	> 1000 nM	> 1000 nM	–
CCCn1c(=O)c2[nH]c(-c3cc(NC(=O)[C@@H](C)c4ccccc4)nn3C)nc2n(CCC)c1=O	> 1000 nM	–	–	–
CC(C)Cn1c(=O)c2nc(-c3cc(OCC(=O)Nc4ccc(F)cc4)nn3C)[nH]c2n(CC(C)C)c1=O	–	> 1000 nM	> 1000 nM	–
CCCn1c(=O)c2c(nc(-c3ccc(N)cc3)n2C)n(CCC)c1=O	> 1000 nM	> 1000 nM	> 1000 nM	Ki (Adenosine receptor A2b [2]): 516 nM
CCCn1c(=O)c2[nH]c(-c3ccc(NC(=O)Cc4ccccc4)cc3)nc2n(CCC)c1=O	> 1000 nM	> 1000 nM	> 1000 nM	Ki (Adenosine receptor A2b [2]): 649 nM
CCCn1c(=O)c2nc(-c3ccc(NC(=O)Nc4cccc(Cl)c4)cc3)[nH]c2n(CCC)c1=O	1360 nM	> 1000 nM	> 1000 nM	Ki (Adenosine receptor A2b [2]): 110 nM
CCCn1c(=O)c2[nH]c(-c3cc(NC(=O)Cc4ccc(N(C)C)cc4)nn3C)nc2n(CCC)c1=O	> 1000 nM	–	–	–
CCCn1c(=O)c2[nH]c(-c3cc(OCC(=O)N4CCN(c5ccc(F)cc5)CC4)nn3C)nc2n(CCC)c1=O	> 1000 nM	–	–	–
CCCn1c(=O)c2[nH]c(-c3cc(NC(=O)Cc4ccc(OC)c(OC)c4)nn3C)nc2n(CCC)c1=O	> 1000 nM	> 1000 nM	–	Ki (Adenosine receptor A2b [1]): 38 nM
CCCn1c(=O)c2[nH]c(-c3cc(NC(=O)CCC(=O)O)nn3C)nc2n(CCC)c1=O	> 1000 nM	–	–	–
CCCn1c(=O)c2[nH]c(-c3cc(OCC(=O)Nc4ccc(Br)cc4)nn3C)nc2n(CCC)c1=O	–	–	–	Ki (Adenosine receptor A2b [1]): 20 nM
Cn1nc(-c2nc3c([nH]2)c(=O)n(C)c(=O)n3C)cc1N	> 1000 nM	> 1000 nM	> 1000 nM	Ki (Adenosine receptor A2b [2]): 175 nM
CCCn1c(=O)c2[nH]c(-c3cc(NC(=O)[C@H](C)c4ccccc4)nn3C)nc2n(CCC)c1=O	> 1000 nM	–	–	–
CCCn1c(=O)c2[nH]c(-c3ccc(NC(=O)Cc4ccc(OC)c(OC)c4)cc3)nc2n(CCC)c1=O	1730 nM	> 1000 nM	> 1000 nM	Ki (Adenosine receptor A2b [2]): 95 nM
CCCn1c(=O)c2[nH]c(-c3cc(NC(=O)Cc4ccc(O)c(OC)c4)nn3C)nc2n(CCC)c1=O	> 1000 nM	> 1000 nM	–	–
CCCn1c(=O)c2[nH]c(-c3cc(C(=O)O)n(C)n3)nc2n(CCC)c1=O	> 1000 nM	–	–	–

SMILES	Ki (Adenosine receptor A1)	Ki (Adenosine receptor A2a)	Ki (Adenosine receptor A3)	further results
CCCn1c(=O)c2[nH]c(-c3cc(NC(=O)Cc4ccc(OCc5ccccc5C(F)(F)F)cc4)nn3C)nc2n(CCC)c1=O	–	–	–	Ki (Adenosine receptor A2b [1]): 13 nM
CCCn1c(=O)c2[nH]c(-c3cc(OCC(=O)N4CCN(Cc5ccccc5)CC4)nn3C)nc2n(CCC)c1=O	–	> 1000 nM	> 1000 nM	–
CCCn1c(=O)c2[nH]c(-c3cc(NC(=O)Cc4ccc(CC(C)C)cc4)nn3C)nc2n(CCC)c1=O	> 1000 nM	–	–	–
CCCn1c(=O)c2[nH]c(-c3cc(OCC(=O)Nc4ccc(OC)c(OC)c4)no3)nc2n(CCC)c1=O	> 1000 nM	–	–	–
Cn1nc(NC(=O)Cc2ccccc2)cc1-c1nc2c([nH]1)c(=O)n(C)c(=O)n2C	> 1000 nM	–	–	–
CCCn1c(=O)c2nc(-c3ccc(N)cc3)[nH]c2n(CCC)c1=O	65 nM	> 1000 nM	> 1000 nM	Ki (Adenosine receptor A2b [2]): 9 nM
CCCn1c(=O)c2[nH]c(-c3cc(NC(=O)Cc4ccccc4)n(C)n3)nc2n(CCC)c1=O	–	> 1000 nM	> 1000 nM	Ki (Adenosine receptor A2b [1]): 34 nM
CCCn1c(=O)c2[nH]c(-c3cc(OCC(=O)Nc4ccc(Cl)c(Cl)c4)nn3C)nc2n(CCC)c1=O	–	–	–	Ki (Adenosine receptor A2b [1]): 16 nM; IC50 (Adenosine receptor A2b [3]): 60 nM
C=CCn1c(=O)c2[nH]c(-c3cc(OCC(=O)N4CCN(c5ccccc5)CC4)nn3C)nc2n(CC=C)c1=O	> 1000 nM	–	–	Ki (Adenosine receptor A2b [1]): 24 nM; IC50 (Adenosine receptor A2b [3]): 81 nM
CCCn1c(=O)c2[nH]c(-c3ccc(NC(=O)Nc4cccc(OC)c4)cc3)nc2n(CCC)c1=O	1170 nM	> 1000 nM	> 1000 nM	Ki (Adenosine receptor A2b [2]): 58 nM
CCCn1c(=O)c2[nH]c(-c3cc(NC(=O)Cc4ccc([N+](=O)[O-])cc4)nn3C)nc2n(CCC)c1=O	> 1000 nM	–	–	–
CCCn1c(=O)c2[nH]c(-c3cc(OCC(=O)Nc4ccc(OC)c(OC)c4)nn3C)nc2n(CCC)c1=O	> 1000 nM	–	–	Ki (Adenosine receptor A2b [1]): 12 nM; IC50 (Adenosine receptor A2b [3]): 46 nM
CCCn1c(=O)c2[nH]c(-c3cc(OCC(=O)Nc4ccc(C(C)=O)cc4)nn3C)nc2n(CCC)c1=O	> 1000 nM	> 1000 nM	> 1000 nM	–
CCCn1c(=O)c2[nH]c(-c3cc(OCC(=O)Nc4ccc(C)cn4)nn3C)nc2n(CCC)c1=O	> 1000 nM	> 1000 nM	> 1000 nM	Ki (Adenosine receptor A2b [2]): 1010 nM
CCCn1c(=O)c2[nH]c(-c3cc(OCC(=O)Nc4ccc(C(=O)O)cc4)nn3C)nc2n(CCC)c1=O	> 1000 nM	–	–	Ki (Adenosine receptor A2b [1]): 36 nM; IC50 (Adenosine receptor A2b [3]): 115 nM
CCCn1c(=O)c2[nH]c(-c3cc(OCC(=O)Nc4ccc(C(C)CC)cc4)nn3C)nc2n(CCC)c1=O (stereo not drawn)	–	> 1000 nM	> 1000 nM	–
CCCn1c(=O)c2[nH]c(-c3cc(NC(=O)Cc4cccc(F)c4)nn3C)nc2n(CCC)c1=O	–	–	–	Ki (Adenosine receptor A2b [1]): 50 nM; IC50 (Adenosine receptor A2b [3]): 160 nM
CCCn1c(=O)c2[nH]c(-c3cc(OCC(=O)Nc4ccc(C)c(C)c4)nn3C)nc2n(CCC)c1=O	–	–	–	Ki (Adenosine receptor A2b [1]): 10 nM; IC50 (Adenosine receptor A2b [3]): 40 nM
CCCn1c(=O)c2[nH]c(-c3cc(OCC(=O)Nc4ccc(C)cc4)nn3C)nc2n(CCC)c1=O	–	–	–	Ki (Adenosine receptor A2b [1]): 19 nM; IC50 (Adenosine receptor A2b [3]): 75 nM
CCCn1c(=O)c2[nH]c(-c3cc(NC(=O)Cc4ccc(C(F)(F)F)cc4)nn3C)nc2n(CCC)c1=O	–	–	–	Ki (Adenosine receptor A2b [2]): 130 nM
CCCn1c(=O)c2[nH]c(-c3cc(OCC(=O)Nc4ccncc4)nn3C)nc2n(CCC)c1=O	–	> 1000 nM	> 1000 nM	–
CCCn1c(=O)c2[nH]c(-c3cc(OCC(=O)Nc4ccc(OC)cc4)no3)nc2n(CCC)c1=O	> 1000 nM	–	–	–
CCCn1c(=O)c2[nH]c(-c3cc(OCC(=O)Nc4ccc(N5CCOCC5)cc4)nn3C)nc2n(CCC)c1=O	> 1000 nM	–	–	–
CCCn1c(=O)c2[nH]c(-c3ccc(OCC(=O)Nc4ccc(I)cc4)nn3)nc2n(CCC)c1=O	> 1000 nM	–	–	–
